According to patent US9201014B2, “Development of photostable near-IR cyanine dyes for in vivo imaging” (National University of Singapore, priority 2010, dated 2015):

Legend:
Type in all cases: physicochemical
[1] = Absorbance and fluorescence maximum wavelengths and quantum yields of the CyNA library; details: for λabs, absorbance maximum wavelength / λem, fluorescence maximum wavelength: CyNA library; for φ, quantum yield: in DMSO, Cardiogreen as standard
How it was run: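 Absorption and emission maxima and quantum yields of the 80-member amine-derivatized CyNA library were measured on a plate spectrophotometer.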

[2] = Primary screening of photostability of the CyNA library (time-course fluorescence, 8 h); set-up: F/Fo, fluorescent intensity at 8 hours vs 0 hours: unit: %; details: 10 μM in HEPES 100 mM pH 7.4, 2% DMSO
How it was run: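 CyNA dyes at 10 μM in 100 mM HEPES pH 7.4 with 2% DMSO irradiated by xenon lamp for 8 h. Fluorescence (ex/em 790-820 nm) read every 10 min; stability given as F8h/Fo.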

[3] = Characterization of the CyNAMLA library (absorbance maximum wavelengths); details: absorbance maximum wavelength of CyNAMLA library compounds
Protocol: The amine group of 21 was protected using di-tert-butyl dicarbonate then derivatized with 80 different primary amines (for structures, see FIGS. 14A-14D). After acetylation of the newly-introduced amine, the compounds were treated with a solution of TFA-DCM (1:9) to remove the tert-butylcarbamate protecting group. The deprotected amine was then coupled to lipoic acid to yield CyNAMLA derivatives with an average purity of 90% (for HPLC-determined purities, see Table 6).

[4] = Primary screen of SERS intensities of CyNAMLA-functionalized AuNPs (compact Raman scanner); details: for Raman intensity: SERS spectra of CyNAMLA-functionalized AuNPs, excitation at 785 nm, laser power 60 mW
Protocol: FIG. 15 is a graph of the comparative surface-enhanced Raman spectroscopy (SERS) intensities of members of the CyNAMLA library measured with an excitation wavelength of 785 nm and a laser power of 60 mW in a compact Raman scanner.
The CyNAMLA compounds were adsorbed onto AuNPs having a diameter of approximately 60 nm, and the SERS properties of the resulting CyNAMLA-functionalized AuNPs were evaluated using a compact Raman scanner. Among metal nanoparticles, AuNPs are particularly suitable for in vivo applications due to their low toxicity, adaptability to bioconjugation, and reproducible signal intensity and quantification.

SMILES	λabs (max) [3] [nm]	Raman intensity [4]	other results
CCCN1/C(=C/C=C2\CCCC(/C=C/C3=[N+](CCC)c4ccccc4C3(C)C)=C2N(Cc2ccc(Cl)c(Cl)c2)C(C)=O)C(C)(C)c2ccccc21 [CyNA-565]			λabs, absorbance maximum wavelength [1]: 805 nm; λem, fluorescence maximum wavelength [1]: 821 nm; φ, quantum yield [1]: 0.09; F/Fo, fluorescent intensity at 8 hours vs 0 hours [2]: 96; max RFU, maximum relative fluorescence units [2]: 335.5
CCCCCCCCCCCN(C(C)=O)C1=C(/C=C/C2=[N+](CCC)c3ccccc3C2(C)C)CCC/C1=C\C=C1\N(CCC)c2ccccc2C1(C)C [CyNA-567]			λabs, absorbance maximum wavelength [1]: 805 nm; λem, fluorescence maximum wavelength [1]: 820 nm; φ, quantum yield [1]: 0.14; F/Fo, fluorescent intensity at 8 hours vs 0 hours [2]: 100; max RFU, maximum relative fluorescence units [2]: 279.2
CCCN1/C(=C/C=C2\CCCC(/C=C/C3=[N+](CCC)c4ccccc4C3(C)C)=C2N(CC(C)CC)C(C)=O)C(C)(C)c2ccccc21 (centres unmarked) [CyNA-574]			λabs, absorbance maximum wavelength [1]: 803 nm; λem, fluorescence maximum wavelength [1]: 818 nm; φ, quantum yield [1]: 0.06; F/Fo, fluorescent intensity at 8 hours vs 0 hours [2]: 38; max RFU, maximum relative fluorescence units [2]: 321.1
CCCN1/C(=C/C=C2\CCCC(/C=C/C3=[N+](CCC)c4ccccc4C3(C)C)=C2N(CCc2ccccc2-c2ccccc2)C(C)=O)C(C)(C)c2ccccc21 [CyNA-599]			λabs, absorbance maximum wavelength [1]: 805 nm; λem, fluorescence maximum wavelength [1]: 819 nm; φ, quantum yield [1]: 0.07; max RFU, maximum relative fluorescence units [2]: 105.9
CCCN1/C(=C/C=C2\CCCC(/C=C/C3=[N+](CCCNC(=O)CCCCC4CCSS4)c4ccccc4C3(C)C)=C2N(Cc2ccc3c(c2)OCO3)C(C)=O)C(C)(C)c2ccccc21.O=C([O-])C(F)(F)F (centres unmarked) [CyNAMLA-49]	806	2271	
CCCCCCCCCCCCCN(C(C)=O)C1=C(/C=C/C2=[N+](CCCNC(=O)CCCCC3CCSS3)c3ccccc3C2(C)C)CCC/C1=C\C=C1\N(CCC)c2ccccc2C1(C)C.O=C([O-])C(F)(F)F (centres unmarked) [CyNAMLA-55]	805	1125	
CCCN1/C(=C/C=C2\CCCC(/C=C/C3=[N+](CCCNC(=O)CCCCC4CCSS4)c4ccccc4C3(C)C)=C2N(Cc2ccccc2C)C(C)=O)C(C)(C)c2ccccc21.O=C([O-])C(F)(F)F (centres unmarked) [CyNAMLA-101]	803	2102	
CCCN1/C(=C/C=C2\CCCC(/C=C/C3=[N+](CCCNC(=O)CCCCC4CCSS4)c4ccccc4C3(C)C)=C2N(Cc2ccccc2OCC)C(C)=O)C(C)(C)c2ccccc21.O=C([O-])C(F)(F)F (centres unmarked) [CyNAMLA-103]	806	6424	
CCCN1/C(=C/C=C2\CCCC(/C=C/C3=[N+](CCCNC(=O)CCCCC4CCSS4)c4ccccc4C3(C)C)=C2N(C(C)=O)C2CCN(Cc3ccccc3)CC2)C(C)(C)c2ccccc21.O=C([O-])C(F)(F)F (centres unmarked) [CyNAMLA-107]	805	2397	
CCCN1/C(=C/C=C2\CCCC(/C=C/C3=[N+](CCCNC(=O)CCCCC4CCSS4)c4ccccc4C3(C)C)=C2N(Cc2cccc(OC)c2OC)C(C)=O)C(C)(C)c2ccccc21.O=C([O-])C(F)(F)F (centres unmarked) [CyNAMLA-124]	804	2201	
CCCN1/C(=C/C=C2\CCCC(/C=C/C3=[N+](CCCNC(=O)CCCCC4CCSS4)c4ccccc4C3(C)C)=C2N(C(C)=O)C2CCCCC2)C(C)(C)c2ccccc21.O=C([O-])C(F)(F)F (centres unmarked) [CyNAMLA-164]	803	4777	
CCCN1/C(=C/C=C2\CCCC(/C=C/C3=[N+](CCCNC(=O)CCCCC4CCSS4)c4ccccc4C3(C)C)=C2N(C(C)=O)C2CCCC2)C(C)(C)c2ccccc21.O=C([O-])C(F)(F)F (centres unmarked) [CyNAMLA-180]	804	8236	
CCCN1/C(=C/C=C2\CCCC(/C=C/C3=[N+](CCCNC(=O)CCCCC4CCSS4)c4ccccc4C3(C)C)=C2N(Cc2ccc(OC)cc2OC)C(C)=O)C(C)(C)c2ccccc21.O=C([O-])C(F)(F)F (centres unmarked) [CyNAMLA-181]	804	2109	
CCCN1/C(=C/C=C2\CCCC(/C=C/C3=[N+](CCCNC(=O)CCCCC4CCSS4)c4ccccc4C3(C)C)=C2N(CCc2cccc(OC)c2OC)C(C)=O)C(C)(C)c2ccccc21.O=C([O-])C(F)(F)F (centres unmarked) [CyNAMLA-184]	803	24133	
CCCC(C)N(C(C)=O)C1=C(/C=C/C2=[N+](CCCNC(=O)CCCCC3CCSS3)c3ccccc3C2(C)C)CCC/C1=C\C=C1\N(CCC)c2ccccc2C1(C)C.O=C([O-])C(F)(F)F (centres unmarked) [CyNAMLA-185]	805	4603	

Continued, in another order:

λabs (max) [3] [nm]	Raman intensity [4]	SMILES	other results
804	1922	CCCN1/C(=C/C=C2\CCCC(/C=C/C3=[N+](CCCNC(=O)CCCCC4CCSS4)c4ccccc4C3(C)C)=C2N(Cc2ccc(F)cc2)C(C)=O)C(C)(C)c2ccccc21.O=C([O-])C(F)(F)F (centres unmarked) [CyNAMLA-218]	
804	4341	CCCCC(CC)CN(C(C)=O)C1=C(/C=C/C2=[N+](CCCNC(=O)CCCCC3CCSS3)c3ccccc3C2(C)C)CCC/C1=C\C=C1\N(CCC)c2ccccc2C1(C)C.O=C([O-])C(F)(F)F (centres unmarked) [CyNAMLA-230]	
805	27810	CCCN1/C(=C/C=C2\CCCC(/C=C/C3=[N+](CCCNC(=O)CCCCC4CCSS4)c4ccccc4C3(C)C)=C2N(Cc2cc(OC)cc(OC)c2)C(C)=O)C(C)(C)c2ccccc21.O=C([O-])C(F)(F)F (centres unmarked) [CyNAMLA-262]	SERS intensity compared to DTTC, primary screen ([4]; on AuNPs, 785 nm, 60 mW): exceeded the signal of DTTC
806	3013	CCCN1/C(=C/C=C2\CCCC(/C=C/C3=[N+](CCCNC(=O)CCCCC4CCSS4)c4ccccc4C3(C)C)=C2N(CCc2ccc(OC)c(OC)c2)C(C)=O)C(C)(C)c2ccccc21.O=C([O-])C(F)(F)F (centres unmarked) [CyNAMLA-266]	
805	1986	CCCN1/C(=C/C=C2\CCCC(/C=C/C3=[N+](CCCNC(=O)CCCCC4CCSS4)c4ccccc4C3(C)C)=C2N(CCN2CCCCC2)C(C)=O)C(C)(C)c2ccccc21.O=C([O-])C(F)(F)F (centres unmarked) [CyNAMLA-272]	
806	6417	CCCN1/C(=C/C=C2\CCCC(/C=C/C3=[N+](CCCNC(=O)CCCCC4CCSS4)c4ccccc4C3(C)C)=C2N(CCCOC(C)C)C(C)=O)C(C)(C)c2ccccc21.O=C([O-])C(F)(F)F (centres unmarked) [CyNAMLA-274]	
804	1408	CCCN1/C(=C/C=C2\CCCC(/C=C/C3=[N+](CCCNC(=O)CCCCC4CCSS4)c4ccccc4C3(C)C)=C2N(C(C)=O)C(C)CCc2ccccc2)C(C)(C)c2ccccc21.O=C([O-])C(F)(F)F (centres unmarked) [CyNAMLA-275]	
804	2046	CCCCCCCN(C(C)=O)C1=C(/C=C/C2=[N+](CCCNC(=O)CCCCC3CCSS3)c3ccccc3C2(C)C)CCC/C1=C\C=C1\N(CCC)c2ccccc2C1(C)C.O=C([O-])C(F)(F)F (centres unmarked) [CyNAMLA-277]	
805	2850	CCCN1/C(=C/C=C2\CCCC(/C=C/C3=[N+](CCCNC(=O)CCCCC4CCSS4)c4ccccc4C3(C)C)=C2N(Cc2ccc(OC)c(OC)c2)C(C)=O)C(C)(C)c2ccccc21.O=C([O-])C(F)(F)F (centres unmarked) [CyNAMLA-319]	
805	2548	CCCN1/C(=C/C=C2\CCCC(/C=C/C3=[N+](CCCNC(=O)CCCCC4CCSS4)c4ccccc4C3(C)C)=C2N(Cc2c(OC)cc(OC)cc2OC)C(C)=O)C(C)(C)c2ccccc21.O=C([O-])C(F)(F)F (centres unmarked) [CyNAMLA-336]	
